Legend:
[1] = system: Pyrenophora teres; assay: Pyrenophora teres test (in vitro)/microtitre plates; assay type: cell-based; settings: 120 h, 5 days incubation, single active compound, read-out: % efficacy
Description: (§1) The microtest is carried out in microtitre plates using Potato Dextrose Broth (PDB) as liquid test medium. The active compounds are used as technical-grade a.i., dissolved in methanol. For inoculation, a spore suspension of Pyrenophora teres is used. After 5 days of incubation in the dark and with shaking (10 Hz), the transparency in each filled cavity of the microtitre plates is determined with the aid of a spectrophotometer.

[2] = system: Phaedon cochleariae; assay: Phaedon cochleariae larvae test; settings: sprayed cabbage leaves
[3] = system: Rhizoctonia solani; assay: Rhizoctonia solani test (in vitro)/microtitre plates; assay type: cell-based; settings: 168 h, 7 days incubation, single active compound, read-out: % efficacy
Description: as §1, with “acetone.” for “methanol.”, “mycelium” for “spore”, “Rhizoctonia solani” for “Pyrenophora teres”, “7” for “5”

Structure (SMILES) | Emax at 1 ppm [1] [%] | Kill in % after 3 d ([2]; 4 ppm) [%] | Emax at 0.3 ppm [3] [%] | Kill in % after 3 d ([2]; 200 ppm) [%] | Kill in % after 1 d ([2]; 500 ppm) [%] | Kill in % after 1 d ([2]; 100 ppm) [%]
CNC(=O)c1cc(Cl)cc(C)c1NC(=O)c1cc(Br)nn1-c1ncccc1Cl [Rynaxypyr, 3-bromo-N-[4-chloro-2-methyl-6-(methylcarbamoyl)phenyl]-1-(3-chloropyridin-2-yl)-1H-pyrazole-5-carboxamide] | 11 | 80 | – | – | – | –
Cc1nn(C)c(F)c1C(=O)Nc1ccccc1C(C)CC(C)C (centres unmarked) [penflufen, N-[2-(1,3-dimethylbutyl)phenyl]-5-fluoro-1,3-dimethyl-1H-pyrazole-4-carboxamide] | 26 | – | 20 | 0 | 0 | –
CC(c1ccc(C(F)(F)F)nc1)S(C)(=O)=NC#N (centres unmarked) [sulfoxaflor] | – | – | 0 | – | – | 25

From patent publication US8598079B2, “Active compound combinations” (priority 2010, dated 2013)
